Drawing on US11161819B2, “Substituted tetrahydroisoquinoline compounds useful as GPR120 agonists” (Merck Sharp & Dohme Corp., priority 2016, dated 2021), this text covers EC50 for 31 molecules.

This experiment concerns the target T1, human GPR120 (Homo sapiens, UniProt Q5NUL3).
T1 construct: expressed in transfected cells
T1 sequence (Q5NUL3 1-361): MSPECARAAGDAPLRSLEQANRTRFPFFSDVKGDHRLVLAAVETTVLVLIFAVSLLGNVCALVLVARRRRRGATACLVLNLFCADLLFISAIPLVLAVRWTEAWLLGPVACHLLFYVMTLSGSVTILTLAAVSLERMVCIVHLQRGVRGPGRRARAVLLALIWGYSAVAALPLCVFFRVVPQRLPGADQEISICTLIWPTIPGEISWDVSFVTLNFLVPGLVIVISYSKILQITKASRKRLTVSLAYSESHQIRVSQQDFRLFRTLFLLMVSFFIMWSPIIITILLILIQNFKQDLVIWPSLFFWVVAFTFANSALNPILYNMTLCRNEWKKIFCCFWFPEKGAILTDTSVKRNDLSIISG
Description: Human GPR120 IP1 Assay (inositol phosphate turnover, CisBio IP-One kit). Format: cell-based. To be noted: IP1 accumulation in CHO-K1 cells stably expressing the short form of human GPR120; 60 min compound incubation; 4-parameter fit; read-out: hGPR120 EC50. The procedure, abridged:
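CHO-K1 cells stably expressing short-form human GPR120 were stimulated with compounds for 60 minutes at 37 degrees in stimulation buffer. IP1 accumulation measured by HTRF competitive immunoassay (665/620 nm ratio) against an IP1 standard curve, normalized to a reference compound; EC50 from 4-parameter fit.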
Turning to `N#Cc1ccc(OC(F)(F)F)cc1N1CCc2c(ccc([C@H]3C[C@@H]3C(=O)O)c2F)C1` [Example 117, (1S,2S)-2-{2-[2-cyano-5-(trifluoromethoxy)phenyl]-5-fluoro-1,2,3,4-tetrahydroisoquinolin-6-yl} cyclopropane-carboxylic acid], the concentration for a half-maximal effect (EC50) (in general, the midpoint of the concentration-response curve) was 0.143 µM.
Under `O=C(O)CCc1cc(F)c2c(c1)CCN(c1cc(OC(F)(F)F)ccc1F)C2` [Example 51, 3-{8-fluoro-2-[2-fluoro-5-(trifluoromethoxy)phenyl]-1,2,3,4-tetrahydroisoquinolin-6-yl}-propanoic acid] stands 0.317 µM; under `N#Cc1c(F)cc(OC2CCC2)cc1N1CCc2c(ccc([C@H]3C[C@@H]3C(=O)O)c2F)C1` [Example 126, (1S,2S)-2-{2-[2-cyano-5-(cyclo-butyloxy)-3-fluorophenyl]-5-fluoro-1,2,3,4-tetrahydroiso-quinolin-6-yl}cyclopropane-carboxylic acid], 9.74 µM; under `COc1cc(C#N)c(N2CCc3cc(CCC(=O)O)ccc3C2)cc1OC1CCC1` [Example 42, 3-{2-[2-cyano-5-(cyclobutyloxy)-4-methoxyphenyl]-1,2,3,4-tetra-hydroisoquinolin-6-yl}propanoic acid], 0.798 µM.
Under `O=C(O)CCc1cc2c(cc1F)CN(c1cc(OC3CCC3)cc(F)c1F)CC2` [Example 131, 3-(2-(5-cyclobutoxy-2,3-difluorophenyl)-7-fluoro-1,2,3,4-tetrahydro-isoquinolin-6-yl)propanoic acid] stands 0.174 µM.
Turning to `O=C(O)[C@@H]1C[C@H]1c1ccc2c(c1F)CCN(c1cc(OC(F)(F)F)cc(F)c1Cl)C2` [Example 121, (1R,2R)-2-{2-[2-chloro-3-fluoro-5-(trifluoromethoxy)phenyl]-5-fluoro-1,2,3,4-tetra-hydroisoquinolin-6-yl}cyclo-propanecarboxylic acid], the EC50 was 0.073 µM.
As for `O=C(O)C1CC1c1ccc2c(c1)CCN(c1cc(OC(F)(F)F)ccc1F)C2` (stereo not shown) [Example 102, 2-{2-[2-fluoro-5-(trifluoromethoxy)phnyl]-1,2,3,4-tetrahydroisoquinolin-6-yl}cyclopropane-carboxylic acid], the figure is 0.118 µM; as for `Cc1ccc(-n2nc(C)c(C#N)c2N2CCc3cc(OCCO)ccc3C2)cc1` [Example 130, 5-(6-(2-hydroxyethoxy)-3,4-dihydroisoquinolin-2(1H)-yl)-3-methyl-1-(p-tolyl)-1H-pyrazole-4-carbonitrile], 0.087 µM.
With `CC1c2ccc(CCC(=O)O)cc2CCN1c1cc(OC2CCC2)ccc1F` (stereo not shown) [Example 6, 3-(2-(5-cyclobutoxy-2-fluorophenyl)-1-methyl-1,2,3,4-tetrahydroisoquinolin-6-yl)-propanoic acid], the EC50 stood at 0.417 µM.
Under `CC1c2ccc(CCC(=O)O)cc2CCN1c1cc(OC2CCC2)cc(F)c1Cl` (stereo not shown) [Example 37, 3-{2-[2-chloro-5-(cyclobutyloxy)-3-fluorophenyl]-1-methyl-1,2,3,4-tetrahydroisoquinolin-6-yl}-propanoic acid] stands 0.377 µM; under `Cc1ccc(-n2nc(C)c(Cl)c2N2CCc3cc(CCCCC(=O)O)ccc3C2)cc1` [Example 137, 5-{2-[4-chloro-3-methyl-1-(4-methylphenyl)-1H-pyrazol-5-yl]-1,2,3,4-tetrahydroisoquinolin-6-yl} pentanoic acid], 0.093 µM.
Regarding `Cc1ccc(-n2nc(C)c(Cl)c2N2CCc3cc(CCC(=O)O)ccc3C2)cc1` [Example 22, 3-{2-[4-chloro-3-methyl-1-(4-methylphenyl)-1H-pyrazol-5-yl]-1,2,3,4-tetrahydroisoquinolin-6-yl} propanoic acid], the EC50 was found to be 0.056 µM.
As for `Cc1ccc(-n2nc(C)c(C#N)c2N2CCc3cc(CCCCC(=O)O)ccc3C2)cc1` [Example 134, 5-{2-[4-cyano-3-methyl-1-(4-methyl-phenyl)-1H-pyrazol-5-yl]-1,2,3,4-tetrahydroisoquinolin-6-yl}pentanoic acid], the figure is 0.041 µM; as for `Cc1nc(OC2CCC2)cc(N2CCc3c(ccc(CCC(=O)O)c3F)C2)c1C#N` [Example 149, 3-(2-(3-cyano-6-cyclobutoxy-2-methylpyridin-4-yl)-5-fluoro-1,2,3,4-tetrahydroisoquinolin-6-yl)propanoic acid], 0.033 µM; as for `CO[C@H]1C[C@H](Oc2cc(F)c(C#N)c(N3CCc4cc([C@@H]5C[C@H]5C(=O)O)ccc4C3)c2)C1` [Example 103, (1R,2R)-2-(2-{2-cyano-3-fluoro-5-[(trans-3-methoxycyclobutyl)oxy]phenyl}-1,2,3,4-tetrahydroiso-quinolin-6-yl)cyclopropane-carboxylic acid], 3 µM.
As for `C[C@H]1C[C@H](Oc2cc(F)c(F)c(N3CCc4c(ccc([C@@H]5C[C@H]5C(=O)O)c4F)C3)c2)C1` [Example 112, (1R,2R)-2-(2-{2,3-difluoro-5-[(trans-3-methylcyclobutyl)oxy]phenyl}-5-fluoro-1,2,3,4-tetrahydroisoquinolin-6-yl) cyclopropanecarboxylic acid], the figure is 0.042 µM; as for `C[C@H]1C[C@H](Oc2cc(F)c(F)c(N3CCc4c(ccc([C@H]5C[C@@H]5C(=O)O)c4F)C3)c2)C1` [Example 122, (1S,2S)-2-(2-{2,3-difluoro-5-[(trans-3-methylcyclobutyl)oxy]phenyl}-5-fluoro-1,2,3,4-tetrahydro-isoquinolin-6-yl)cyclopropane-carboxylic acid], 0.121 µM.
For the molecule `CC1c2ccc(CCC(=O)O)cc2CCN1c1cc(OC2CCC2)cc(F)c1F` (stereo not shown) [Example 49, 3-{2-[5-(cyclobutyloxy)-2,3-difluorophenyl]-1-methyl-1,2,3,4-tetrahydroisoquinolin-6-yl}-propanoic acid], the EC50 was 0.223 µM.
In the case of `Cc1nn(-c2ccc(F)cc2)c(N2CCc3cc(C4CC4C(=O)O)ccc3C2)c1F` (stereo not shown) [Example 95, 2-{2-[4-fluoro-1-(4-fluorophenyl)-3-methyl-1H-pyrazol-5-yl]-1,2,3,4-tetrahydroisoquinolin-6-yl} cyclo-propanecarboxylic acid], the EC50 turned out to be 0.491 µM.
Under `O=C(O)[C@H]1C[C@@H]1c1ccc2c(c1)CCN(Cc1cc(OC(F)(F)F)ccc1F)C2` [Example 90, (1S,2S)-2-{2-[2-fluoro-5-(trifluoro-methoxy)benzyl]-1,2,3,4-tetra hydroisoquinolin-6-yl}cyclo-propane carboxylic acid] stands 0.25 µM; under `O=C(O)CCc1ccc2c(c1Cl)CCN(c1cc(OC(F)(F)F)ccc1F)C2` [Example 72, 3-{5-chloro-2-[2-fluoro-5-(trifluoromethoxy)phenyl]-1,2,3,4-tetrahydroiso-quinolin-6-yl}propanoic acid], 1.17 µM; under `O=C(O)[C@@H]1C[C@H]1c1ccc2c(c1)CCN(c1cc(OC(F)(F)F)ccc1F)C2` [Example 87, (1R,2R)-2-{2-[2-fluoro-5-(trifluoro-methoxy)phenyl]-1,2,3,4-tetra hydroisoquinolin-6-yl}cyclo-propane carboxylic acid], 0.074 µM.
Regarding `O=C(O)CCc1ccc2c(c1)CCN(c1cccc(SC3CCC3)n1)C2` [Example 38, 3-{2-[6-(cyclobutylsulfanyl)pyridin-2-yl]-1,2,3,4-tetrahydroiso-quinolin-6-yl}propanoic acid], the half-maximal effective concentration (EC50) was 0.405 µM.
Consider `N#Cc1cc(OC2CCC2)cc(N2CCc3cc(CCC(=O)O)ccc3C2)c1F` [Example 12, 3-{2-[3-cyano-5-(cyclobutyloxy)-2-fluorophenyl]-1,2,3,4-tetra-hydroisoquinolin-6-yl}propanoic acid], for which the EC50 worked out at 0.024 µM.
As for `Cc1nc(OC2CCC2)nc(N2CCc3c(ccc(CCC(=O)O)c3F)C2)c1C#N` [Example 152, 3-{2-[5-cyano-2-(cyclobutyloxy)-6-methylpyrimidin-4-yl]-5-fluoro-1,2,3,4-tetrahydroisoquino-lin-6-yl}propanoic acid], the figure is 0.069 µM.
As for `O=C(O)CCc1ccc2c(c1F)CCN(c1cc(CC3CCC3)ccc1F)C2` [Example 23, 3-{2-[5-(cyclobutylmethyl)-2-fluorophenyl]-5-fluoro-1,2,3,4-tetrahydroisoquinolin-6-yl}propanoic acid], the figure is 0.06 µM; as for `Cc1cnc(Oc2cc(Cl)c(F)c(N3CCc4cc(CCC(=O)O)ccc4C3)c2)s1` [Example 9], 0.02 µM; as for `O=C(O)CCc1ccc2c(c1)CCN(c1cc(OC3CCC3)ccc1F)C2` [Example 19, 3-{2-[5-(cyclobutyloxy)-2-fluorophenyl]-1,2,3,4-tetrahydroiso-quinolin-6-yl}propanoic acid], 0.027 µM.
With `O=C(O)[C@H]1C[C@@H]1c1ccc2c(c1)CCN(c1cc(OC(F)(F)F)ccc1F)C2` [Example 88, (1S,2S)-2-{2-[2-fluoro-5-(trifluoro-methoxy)phenyl]-1,2,3,4-tetra hydroisoquinolin-6-yl}cyclo-propane carboxylic acid], the EC50 came out at 0.11 µM.
On to `O=C(O)[C@@H]1C[C@H]1c1ccc2c(c1)CCN(c1cc(OC3CCC3)cc(F)c1F)C2` [Example 85, (1R,2R)-2-{2-[5-(cyclobutyloxy)-2,3-difluorophenyl]-1,2,3,4-tetra-hydroisoquinolin-6-yl}cyclo-propane-carboxylic acid], for which the EC50 turned out to be 0.04 µM.
Under `Cc1cc(-c2cscn2)nc(N2CCc3c(ccc(CCC(=O)O)c3F)C2)c1C#N` [Example 147, 3-[2-(3-Cyano-4-methyl-6-thiazol-4-yl-pyridin-2-yl)-5-fluoro-1,2,3,4-tetrahydro-isoquinolin-6-yl]-propionic acid] stands 0.141 µM.
